Experimental data reported in publication PMC10304880, “Novel Tryptanthrin Derivatives with Selectivity as c–Jun N–Terminal Kinase (JNK) 3 Inhibitors” (Molecules, 2023).

Assays:
[1] = CellTiter-Glo cytotoxicity in THP-1Blue cells; assay type: cell-based; conditions: human, 24 h incubation
Procedure: (§1) Prior to evaluation of the compounds in cell-based assays, we measured their cytotoxicity in human monocytic THP-1Blue and MonoMac-6 cells during a 24 h incubation. […] Thus, these compounds were all excluded from subsequent testing in these cell lines.
(§2) Cytotoxicity was analyzed with a CellTiter-Glo Luminescent Cell Viability Assay Kit from Promega (Madison, WI, USA), according to the manufacturer’s protocol. Cells were treated with the compound under investigation and cultivated for 24 h. After treatment, the cells were allowed to equilibrate to room temperature for 30 min, substrate was added, and the luminescence measured using a Fluoroscan Ascent FL (Thermo Fisher Scientific, Waltham, MA, USA). The cell IC50 values were calculated by plotting the percentage inhibition against the logarithm of inhibitor concentration (at least five points).

JNK2 = molecular target: T1, JNK2 (Homo sapiens, UniProt P45984); test: KINOMEscan JNK2 binding (Kd); conditions: 12-point series, max 33 μM, duplicate
T1 construct: purchased Eurofins Pharma Discovery (KINOMEscan service)
Procedure: (§3) All compounds were evaluated for their ability to bind to JNK1-3 using the KINOMEscan platform.
(§4) Compounds were submitted for dissociation constant (Kd) determination using KINOMEscan (Eurofins Pharma Discovery, San Diego, CA, USA), as described previously. […] Primary screening at fixed concentrations of compounds was performed in duplicate. To determine dissociation constant Kd, a 12-point half-log dilution series (a maximum concentration of 33 μM) was used.

JNK3 = molecular target: T2, JNK3 (Homo sapiens, UniProt P53779); test: KINOMEscan JNK3 binding (Kd); conditions: for Kd: KINOMEscan, 12-point series, max 33 μM, duplicate; for Selectivity Index JNK1/JNK3 / Selectivity Index JNK2/JNK3: ratio of Kd values
T2 construct: purchased Eurofins Pharma Discovery (KINOMEscan service)
Procedure: as §3, §4

[2] = CellTiter-Glo cytotoxicity in MonoMac-6 cells; assay type: cell-based; conditions: human, 24 h incubation
Procedure: as §1, §2

JNK1 = molecular target: T3, JNK1 (Homo sapiens, UniProt P45983); test: KINOMEscan JNK1 binding (Kd); conditions: 12-point series, max 33 μM, duplicate
T3 construct: purchased Eurofins Pharma Discovery (KINOMEscan service)
Procedure: as §3, §4

[3] = tested on: NF-κB/AP-1 transcriptional activity in THP-1Blue cells; test: LPS-induced NF-κB/AP-1 alkaline phosphatase reporter assay in THP-1Blue cells; assay type: cell-based; conditions: Homo sapiens, 30 min pretreatment, 250 ng/mL LPS, 24 h; read-out: AP Production in THP–1Blue IC50
Procedure: Activation of AP-1/NF-κB was measured using an alkaline phosphatase reporter gene assay in THP1-Blue cells. Human monocytic THP-1Blue cells were stably transfected with a secreted embryonic alkaline phosphatase gene that was under the control of a promoter inducible by AP-1/NF-κB.
(§5) Figure 2 Effect of compounds 4d and 4e on NF-κB/AP-1 activity and IL-6 production. Panel (A) THP-1Blue cells were pretreated with the indicated compounds or DMSO for 30 min, followed by addition of 250 ng/mL LPS or buffer for 24 h. […] Panel (B) MonoMac-6 cells were pretreated with the indicated compounds or DMSO for 30 min, followed by addition of 250 ng/mL LPS or buffer for 24 h. Production of IL-6 in the supernatants was evaluated with ELISA. The data in each panel are presented as the mean ± S.D. of triplicate samples from one experiment that is representative of three independent experiments.

[4] = tested on: IL-6 production in MonoMac-6 cells; test: LPS-induced IL-6 production in MonoMac-6 cells (ELISA); assay type: cell-based, human; conditions: 250 ng/mL LPS, 24 h
Procedure: All cells were cultured at 37 °C in a humidified atmosphere containing 5% CO2. Human THP-1Blue monocytic cells obtained from InvivoGen (San Diego, CA, USA) were cultured in RPMI 1640 medium (Mediatech Inc., Herndon, VA, USA) supplemented with 10% (v/v) fetal bovine serum (FBS), 4.5 g/L glucose, 100 μg/mL streptomycin, 100 U/mL penicillin, 100 μg/mL phleomycin (Zeocin), and 10 μg/mL blasticidin S. Human monocyte-macrophage MonoMac-6 cells (Deutsche Sammlung von Mikroorganismen und Zellkulturen GmbH, Braunschweig, Germany) were grown in RPMI 1640 medium supplemented with 10% (v/v) FBS, 10 μg/mL bovine insulin, 100 μg/mL streptomycin, and 100 U/mL penicillin.
as §5, with “Panel” for “Figure 2 Effect of compounds 4d and 4e on NF-κB/AP-1 activity and IL-6 production. Panel”

[5] = Homo sapiens, MONO-MAC-6, 30 min pretreatment

T3 sequence (P45983 whole entry): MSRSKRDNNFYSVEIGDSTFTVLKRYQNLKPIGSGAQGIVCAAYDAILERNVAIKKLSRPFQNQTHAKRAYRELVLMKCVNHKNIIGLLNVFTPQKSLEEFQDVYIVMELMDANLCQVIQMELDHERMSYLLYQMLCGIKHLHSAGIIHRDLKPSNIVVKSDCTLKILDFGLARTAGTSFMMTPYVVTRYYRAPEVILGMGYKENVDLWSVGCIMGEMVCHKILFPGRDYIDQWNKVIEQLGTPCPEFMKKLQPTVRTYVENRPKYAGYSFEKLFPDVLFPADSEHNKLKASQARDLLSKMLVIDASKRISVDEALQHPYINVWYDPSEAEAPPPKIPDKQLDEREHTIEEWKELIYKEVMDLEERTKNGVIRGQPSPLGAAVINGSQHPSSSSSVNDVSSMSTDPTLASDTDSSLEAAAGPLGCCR
T2 sequence (P53779 whole entry): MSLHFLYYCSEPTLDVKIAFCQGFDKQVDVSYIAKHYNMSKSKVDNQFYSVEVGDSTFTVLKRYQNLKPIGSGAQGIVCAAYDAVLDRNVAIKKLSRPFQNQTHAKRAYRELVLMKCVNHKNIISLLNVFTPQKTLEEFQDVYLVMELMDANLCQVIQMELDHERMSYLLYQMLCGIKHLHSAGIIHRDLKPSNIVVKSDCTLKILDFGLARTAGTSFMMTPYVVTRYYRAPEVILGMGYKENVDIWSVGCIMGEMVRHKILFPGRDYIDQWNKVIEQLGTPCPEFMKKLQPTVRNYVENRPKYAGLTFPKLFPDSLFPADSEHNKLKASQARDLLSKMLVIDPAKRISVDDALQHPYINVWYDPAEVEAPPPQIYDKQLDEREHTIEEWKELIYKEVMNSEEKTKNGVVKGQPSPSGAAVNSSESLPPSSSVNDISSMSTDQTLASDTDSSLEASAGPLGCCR
T1 sequence (P45984 whole entry): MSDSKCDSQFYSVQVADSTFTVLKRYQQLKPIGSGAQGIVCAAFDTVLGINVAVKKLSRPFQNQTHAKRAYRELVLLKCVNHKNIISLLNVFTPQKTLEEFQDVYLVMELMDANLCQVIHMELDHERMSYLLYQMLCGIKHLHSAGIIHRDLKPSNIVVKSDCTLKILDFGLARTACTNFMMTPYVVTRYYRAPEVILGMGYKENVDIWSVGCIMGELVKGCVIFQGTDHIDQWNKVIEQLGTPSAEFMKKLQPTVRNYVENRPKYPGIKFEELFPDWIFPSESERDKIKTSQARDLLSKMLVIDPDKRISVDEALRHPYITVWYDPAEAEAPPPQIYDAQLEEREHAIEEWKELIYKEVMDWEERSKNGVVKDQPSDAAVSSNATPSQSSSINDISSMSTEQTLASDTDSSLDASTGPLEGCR

O=c1c2ccccc2nc2n1-c1ccc([N+](=O)[O-])cc1C2=NO [Compound 4a, 8-Nitroindolo[2,1-b]quinazolin-6,12-dione Oxime]
IC50 at 24 h [1]: 8.4 ± 0.9 µM
Kd (JNK2): > 30 µM
selectivity index (JNK3 versus JNK1 and JNK2) (JNK3): > 7
Kd (JNK3): 0.86 ± 0.042 µM
Selectivity Index JNK1/JNK3 (JNK3): >40
Selectivity Index JNK2/JNK3 (JNK3): >40
IC50 at 24 h [2]: 4.1 ± 0.7 µM
Kd (JNK1): > 30 µM

O=c1c2ccccc2nc2n1-c1ccc(Br)cc1C2=NO [Compound 4b, 8-Bromoindolo[2,1-b]quinazolin-6,12-dione Oxime]
IC50 at 24 h [1]: > 50 µM
Kd (JNK2): 8.5 ± 3.2 µM
selectivity index (JNK3 versus JNK1 and JNK2) (JNK3): > 7
Kd (JNK3): 0.41 ± 0.07 µM
Selectivity Index JNK1/JNK3 (JNK3): 7.8
Selectivity Index JNK2/JNK3 (JNK3): 20.7
melting point: > 225 °C (dec.)
IC50 at 24 h [2]: > 50 µM
Kd (JNK1): 3.2 ± 0.21 µM
IC50 [3]: 2.1 ± 0.7 µM
IC50 [4, 5]: 15.5 ± 3.8 µM

CCc1ccc2c(c1)C(=NO)c1nc3ccccc3c(=O)n1-2 [Compound 4c, 8-Ethylindolo[2,1-b]quinazolin-6,12-dione Oxime]
IC50 at 24 h [1]: > 50 µM
Kd (JNK2): 1.3 ± 0.01 µM
Kd (JNK3): 0.49 ± 0.09 µM
Selectivity Index JNK1/JNK3 (JNK3): 5.3
Selectivity Index JNK2/JNK3 (JNK3): 2.7
melting point: > 225 °C (dec.)
IC50 at 24 h [2]: 13.3 ± 1.3 µM
Kd (JNK1): 2.6 ± 0.4 µM
IC50 [3]: 0.7 ± 0.2 µM

O=c1c2cc(Br)ccc2nc2n1-c1ccc([N+](=O)[O-])cc1C2=NO [Compound 4f, 2-Bromo-8-nitroindolo[2,1-b]quinazolin-6,12-dione Oxime]
IC50 at 24 h [1]: 3.8 ± 0.9 µM
Kd (JNK2): > 30 µM
Kd (JNK3): > 30 µM
melting point: > 225 °C (dec.)
IC50 at 24 h [2]: 2.7 ± 0.6 µM
Kd (JNK1): > 30 µM

Cc1cccc2c1C(=NO)c1nc3ccccc3c(=O)n1-2 [Compound 4g, 7-Methylindolo[2,1-b]quinazolin-6,12-dione Oxime]
IC50 at 24 h [1]: > 50 µM
Kd (JNK2): 14 ± 0.7 µM
Kd (JNK3): 0.4 ± 0.04 µM
Selectivity Index JNK1/JNK3 (JNK3): 15.5
Selectivity Index JNK2/JNK3 (JNK3): 35
melting point: > 225 °C (dec.)
IC50 at 24 h [2]: > 50 µM
Kd (JNK1): 6.2 ± 1.8 µM
IC50 [3]: > 50 µM
IC50 [4, 5]: 25.2 ± 5.3 µM

O=c1c2cc(C(F)(F)F)ccc2nc2n1-c1ccccc1C2=NO [Compound 4i, 2-Trifluoromethylindolo[2,1-b]quinazolin-6,12-dione Oxime]
IC50 at 24 h [1]: 5.6 ± 1.2 µM
Kd (JNK2): > 30 µM
Kd (JNK3): 11 ± 1.4 µM
Selectivity Index JNK1/JNK3 (JNK3): >3
Selectivity Index JNK2/JNK3 (JNK3): >3
melting point: > 225 °C (dec.)
IC50 at 24 h [2]: 5.7 ± 1.2 µM
Kd (JNK1): > 30 µM

O=c1c2cc(Br)ccc2nc2n1-c1ccccc1C2=NO [Compound 4j, 2-Bromoindolo[2,1-b]quinazolin-6,12-dione Oxime]
IC50 at 24 h [1]: 12.5 ± 2.3 µM
Kd (JNK2): 7.4 ± 0.6 µM
Kd (JNK3): 1.9 ± 0.4 µM
Selectivity Index JNK1/JNK3 (JNK3): 2.2
Selectivity Index JNK2/JNK3 (JNK3): 3.9
melting point: > 225 °C (dec.)
IC50 at 24 h [2]: 8.2 ± 1.6 µM
Kd (JNK1): 4.1 ± 0.6 µM

O=c1c2ccc(Br)cc2nc2n1-c1ccccc1C2=NO [Compound 4k, 3-Bromoindolo[2,1-b]quinazolin-6,12-dione Oxime]
IC50 at 24 h [1]: 24.1 ± 2.7 µM
Kd (JNK2): > 30 µM
Kd (JNK3): 5.7 ± 1.8 µM
Selectivity Index JNK1/JNK3 (JNK3): >6
Selectivity Index JNK2/JNK3 (JNK3): >6
melting point: > 225 °C (dec.)
IC50 at 24 h [2]: > 50 µM
Kd (JNK1): > 30 µM

O=c1c2ccc(F)cc2nc2n1-c1ccccc1C2=NO [Compound 4l, 3-Fluoroindolo[2,1-b]quinazolin-6,12-dione Oxime]
IC50 at 24 h [1]: > 50 µM
Kd (JNK2): 0.72 ± 0.22 µM
Kd (JNK3): 0.43 ± 0.04 µM
Selectivity Index JNK1/JNK3 (JNK3): 2.6
Selectivity Index JNK2/JNK3 (JNK3): 1.7
melting point: > 225 °C (dec.)
IC50 at 24 h [2]: > 50 µM
Kd (JNK1): 1.1 ± 0.1 µM
IC50 [3]: 5 ± 0.1 µM
IC50 ([4]; 30 min pretreatment): 0.61 ± 0.04 µM
IC50 [4, 5]: < 1 µM

O=c1c2ccc([N+](=O)[O-])cc2nc2n1-c1ccccc1C2=NO [Compound 4m, 3-Nitroindolo[2,1-b]quinazolin-6,12-dione Oxime]
IC50 at 24 h [1]: > 50 µM
Kd (JNK2): > 30 µM
Kd (JNK3): 6.1 ± 0.4 µM
Selectivity Index JNK1/JNK3 (JNK3): >5.6
Selectivity Index JNK2/JNK3 (JNK3): >5.6
melting point: > 225 °C (dec.)
IC50 at 24 h [2]: > 50 µM
Kd (JNK1): > 30 µM
IC50 [3]: 8.3 ± 0.2 µM
IC50 [4, 5]: 1.9 ± 0.3 µM

O=c1c2cc([N+](=O)[O-])ccc2nc2n1-c1ccccc1C2=NO [Compound 4n, 2-Nitroindolo[2,1-b]quinazolin-6,12-dione Oxime]
IC50 at 24 h [1]: 39.3 ± 3.1 µM
Kd (JNK2): > 30 µM
Kd (JNK3): 8.7 ± 1 µM
Selectivity Index JNK1/JNK3 (JNK3): >3.9
Selectivity Index JNK2/JNK3 (JNK3): >3.9
melting point: > 225 °C (dec.)
IC50 at 24 h [2]: > 50 µM
Kd (JNK1): > 30 µM
IC50 [4, 5]: 9.6 ± 1.3 µM

Cc1ccc2c(c1)C(=NO)c1nc3ccc(C)cc3c(=O)n1-2 [Compound 4o, 2,8-Dimethylindolo[2,1-b]quinazolin-6,12-dione Oxime]
IC50 at 24 h [1]: > 50 µM
Kd (JNK2): 6.9 ± 0.2 µM
Kd (JNK3): 0.87 ± 0.16 µM
Selectivity Index JNK1/JNK3 (JNK3): 4.3
Selectivity Index JNK2/JNK3 (JNK3): 7.9
melting point: > 300 °C (dec.)
IC50 at 24 h [2]: > 50 µM
Kd (JNK1): 3.7 ± 0.5 µM
IC50 [3]: 8.1 ± 0.1 µM
IC50 ([4]; 30 min pretreatment): 0.8 ± 0.1 µM
IC50 [4, 5]: < 1 µM

Cc1cccc2c1C(=NO)c1nc3cccc(C)c3c(=O)n1-2 [Compound 4p, 1,7-Dimethylindolo[2,1-b]quinazolin-6,12-dione Oxime]
IC50 at 24 h [1]: > 50 µM
Kd (JNK2): > 30 µM
Kd (JNK3): > 30 µM
melting point: 190 to 191 °C
IC50 at 24 h [2]: > 50 µM
Kd (JNK1): > 30 µM
IC50 [3]: > 50 µM
IC50 [4, 5]: > 50 µM

COc1ccc2c(c1)-n1c(nc3cc(OC)ccc3c1=O)C2=NO [Compound 4r, 3,9-Dimethoxylindolo[2,1-b]quinazolin-6,12-dione Oxime]
IC50 at 24 h [1]: 8.3 ± 1.3 µM
Kd (JNK2): 5.8 ± 1.6 µM
Kd (JNK3): 3.2 ± 1.1 µM
Selectivity Index JNK1/JNK3 (JNK3): 1.4
Selectivity Index JNK2/JNK3 (JNK3): 1.8
melting point: 292 to 293 °C
IC50 at 24 h [2]: 4.3 ± 0.9 µM
Kd (JNK1): 4.6 ± 0.6 µM

O=c1c2ccc(Br)cc2nc2n1-c1cc(Br)ccc1C2=NO [Compound 4s, 3,9-Dibromoindolo[2,1-b]quinazolin-6,12-dione Oxime]
IC50 at 24 h [1]: 49.1 ± 8.3 µM
Kd (JNK2): > 30 µM
Kd (JNK3): > 30 µM
melting point: > 300 °C (dec.)
IC50 at 24 h [2]: 16.9 ± 3.4 µM
Kd (JNK1): > 30 µM

O=c1c2cc(Br)ccc2nc2n1-c1ccc(Br)cc1C2=NO [Compound 4t, 2,8-Dibromoindolo[2,1-b]quinazolin-6,12-dione Oxime]
IC50 at 24 h [1]: 6.6 ± 0.3 µM
Kd (JNK2): > 30 µM
Kd (JNK3): > 30 µM
melting point: 250 to 251 °C
IC50 at 24 h [2]: 9.2 ± 2.1 µM
Kd (JNK1): > 30 µM

O=C(ON=C1c2ccccc2-n2c1nc1ccccc1c2=O)c1ccc2c(c1)OCO2 [Compound 5e, 6-(((Benzo[d][1,3]dioxol-5-carbonyl)oxy)imino)indolo[2,1-b]quinazolin-12(6H)-one]
IC50 at 24 h [1]: > 50 µM
Kd (JNK2): 1.5 ± 0.6 µM
Kd (JNK3): 0.27 ± 0.01 µM
Selectivity Index JNK1/JNK3 (JNK3): 1.7
melting point: 206 to 208 °C
IC50 at 24 h [2]: 27.3 ± 1.4 µM
Kd (JNK1): 0.47 ± 0.08 µM
IC50 [3]: 3.5 ± 1.2 µM

O=c1c2ccccc2nc2n1-c1ccccc1C2=NO [TRYP-Ox, tryptanthrin-6-oxime, reference compound]
IC50 at 24 h [1]: > 50 µM
IC50 at 24 h [2]: > 50 µM
IC50 [3]: 3.8 ± 1.1 µM
